In PubChem BioAssay (NCI):
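Step 1: Grow cells in 96-well plates. Step 2: Expose to compound for 48 hours at 5 concentrations. Step 3: Interpolate endpoints linearly; if unreached, use highest concentration. TGI marks complete inhibition of growth.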

Key:
Assay in all cases: DTP human tumour cell line panel, 48 h
DMS 273 small cell lung = test system: DMS 273 small cell lung
HCC-2998 colon = test system: HCC-2998 colon
HCT-15 colon = test system: HCT-15 colon
HOP-92 NSCLC = test system: HOP-92 NSCLC
K-562 leukemia = test system: K-562 leukemia
KM12 colon = test system: KM12 colon
LXFL 529 NSCLC = test system: LXFL 529 NSCLC
M14 melanoma = test system: M14 melanoma
MOLT-4 leukemia = test system: MOLT-4 leukemia
NCI-H226 lung = test system: NCI-H226 lung
NCI-H23 lung = test system: NCI-H23 lung
NCI-H522 lung = test system: NCI-H522 lung
RPMI-8226 leukemia = test system: RPMI-8226 leukemia
RXF 393 renal = test system: RXF 393 renal
SK-OV-3 ovarian = test system: SK-OV-3 ovarian
SW-620 colon = test system: SW-620 colon
TK-10 renal = test system: TK-10 renal
DMS 114 small cell lung = test system: DMS 114 small cell lung
EKVX NSCLC = test system: EKVX NSCLC
SN12C renal = test system: SN12C renal

Measured: TGI

CNC(=O)CN1CC(=O)N(C)C(=O)C1
> 100 µM: DMS 273 small cell lung | HCC-2998 colon | HCT-15 colon | HOP-92 NSCLC | K-562 leukemia | KM12 colon | LXFL 529 NSCLC | M14 melanoma | MOLT-4 leukemia | NCI-H226 lung | NCI-H23 lung | NCI-H522 lung | RPMI-8226 leukemia | RXF 393 renal | SK-OV-3 ovarian | SW-620 colon | TK-10 renal

COc1ccc2c(c1)c1cc(OC)ccc1n2CCCCOc1ccc(-c2c3ccccc3c(-c3ccc(OCCCCn4c5ccc(OC)cc5c5cc(OC)ccc54)cc3)c3ccccc23)cc1
> 100 µM: DMS 114 small cell lung | DMS 273 small cell lung | EKVX NSCLC | HCC-2998 colon | HCT-15 colon | HOP-92 NSCLC | K-562 leukemia | KM12 colon | M14 melanoma | MOLT-4 leukemia | NCI-H226 lung | NCI-H522 lung | SK-OV-3 ovarian | SN12C renal | SW-620 colon | TK-10 renal
